pIC50, pKd: −log10 of the molar value. Where a name gives a salt, the structure may show the parent alone. Read-outs that look alike come from different tables or passages of the source.

The target in one assay is T1, FLT3 (Homo sapiens, UniProt P36888).
T1 construct: made in house
T1 sequence (P36888 27-993): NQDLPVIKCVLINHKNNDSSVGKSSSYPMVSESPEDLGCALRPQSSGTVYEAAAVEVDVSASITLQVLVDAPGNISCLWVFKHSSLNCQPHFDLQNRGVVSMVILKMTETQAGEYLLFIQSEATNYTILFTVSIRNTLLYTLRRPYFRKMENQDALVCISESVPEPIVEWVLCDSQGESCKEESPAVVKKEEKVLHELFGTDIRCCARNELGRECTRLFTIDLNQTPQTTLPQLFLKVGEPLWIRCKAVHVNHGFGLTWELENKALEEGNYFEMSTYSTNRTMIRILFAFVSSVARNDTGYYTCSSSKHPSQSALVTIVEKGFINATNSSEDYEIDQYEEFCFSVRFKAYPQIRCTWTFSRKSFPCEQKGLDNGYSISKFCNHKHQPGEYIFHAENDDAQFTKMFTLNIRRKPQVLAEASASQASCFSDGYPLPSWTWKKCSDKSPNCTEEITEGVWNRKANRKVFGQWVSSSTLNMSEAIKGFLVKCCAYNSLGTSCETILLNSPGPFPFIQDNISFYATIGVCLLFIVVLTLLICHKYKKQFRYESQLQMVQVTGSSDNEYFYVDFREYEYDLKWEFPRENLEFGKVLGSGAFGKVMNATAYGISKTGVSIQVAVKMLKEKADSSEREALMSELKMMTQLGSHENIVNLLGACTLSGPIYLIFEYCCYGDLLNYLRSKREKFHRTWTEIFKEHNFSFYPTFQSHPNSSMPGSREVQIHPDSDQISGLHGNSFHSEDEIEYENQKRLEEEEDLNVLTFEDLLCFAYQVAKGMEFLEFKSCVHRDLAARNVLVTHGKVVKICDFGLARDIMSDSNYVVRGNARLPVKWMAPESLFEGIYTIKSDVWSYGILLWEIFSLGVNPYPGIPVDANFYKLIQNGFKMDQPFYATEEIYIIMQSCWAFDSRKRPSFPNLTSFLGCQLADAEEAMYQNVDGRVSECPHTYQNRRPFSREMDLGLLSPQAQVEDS
As to the kind of experiment: Binding constant (Kd) measurement, phage-displayed kinase competition binding assay, FLT3. On the procedure:
(§1) Binding Constant (Kd) Measurements for Small-Molecule-Kinase Interactions
(§2) By testing across a large class of protein kinases, specificity of the kinase inhibitors provided herein is also determined. The components of the assays include various human kinases expressed as fusions to T7 bacteriophage particles and immobilized ligands that bind to the ATP site of the kinases. […] If the test compound binds the kinase, it competes with the immobilized ligand and prevents binding to the solid support. […] The results are read out by quantitating the amount of fusion protein bound to the solid support, which is accomplished by either traditional phage plaque assays or by quantitative PCR (qPCR) using the phage genome as a template.

The next assay relates to MV4-11 cells. In words: Cellular proliferation assay (MTS), MV4-11. It counts as cell-based. Conditions: Homo sapiens; MV4-11 cells, 72 hour incubation, MTS; read-out: Cellular Assay MV-proliferation IC50. An excerpt:
Cellular Proliferation Assay
Cancer cell viability and proliferation can be evaluated using a tetrazolium salt reduction cell-based assay. In viable cells, this colorimetric assay can measure mitochondrial reduction of a tetrazolium component (MTS) into an […] formazan product.
This cell line was used to determine the ability of the compounds provided herein to inhibit Flt3 in intact cells. The RS4-11 cell line, which expresses the wild-type (WT) receptor, is also used as a control to verify the test compound's ability to inhibit the FLT3 receptor containing the ITD mutation.
MV4-11 cells were plated at 10,000 cells per well in DMEM medium with 0.5% serum. RS4-11 cells were plated at 20,000 cells per well in RPMI with 0.5% serum. […] An aliquot from each well of the compound plate was transferred to the plated cells and then incubated @ 37° C. in 5% CO2 (for 3 days for the MV4-11 cells, 2 days for the RS4-11 cells).
MTS tetrazolium compound (Owen's reagent) was thawed in a H2O bath. 20 μl of MTS tetrazolium was added to each well of optical plate and the cells were incubated @ 37° C. in 5% CO2 for 2 hours.

In the next assay the target is T2, CSF1R (Homo sapiens, UniProt P07333).
T2 construct: made in house
T2 sequence (P07333 20-972): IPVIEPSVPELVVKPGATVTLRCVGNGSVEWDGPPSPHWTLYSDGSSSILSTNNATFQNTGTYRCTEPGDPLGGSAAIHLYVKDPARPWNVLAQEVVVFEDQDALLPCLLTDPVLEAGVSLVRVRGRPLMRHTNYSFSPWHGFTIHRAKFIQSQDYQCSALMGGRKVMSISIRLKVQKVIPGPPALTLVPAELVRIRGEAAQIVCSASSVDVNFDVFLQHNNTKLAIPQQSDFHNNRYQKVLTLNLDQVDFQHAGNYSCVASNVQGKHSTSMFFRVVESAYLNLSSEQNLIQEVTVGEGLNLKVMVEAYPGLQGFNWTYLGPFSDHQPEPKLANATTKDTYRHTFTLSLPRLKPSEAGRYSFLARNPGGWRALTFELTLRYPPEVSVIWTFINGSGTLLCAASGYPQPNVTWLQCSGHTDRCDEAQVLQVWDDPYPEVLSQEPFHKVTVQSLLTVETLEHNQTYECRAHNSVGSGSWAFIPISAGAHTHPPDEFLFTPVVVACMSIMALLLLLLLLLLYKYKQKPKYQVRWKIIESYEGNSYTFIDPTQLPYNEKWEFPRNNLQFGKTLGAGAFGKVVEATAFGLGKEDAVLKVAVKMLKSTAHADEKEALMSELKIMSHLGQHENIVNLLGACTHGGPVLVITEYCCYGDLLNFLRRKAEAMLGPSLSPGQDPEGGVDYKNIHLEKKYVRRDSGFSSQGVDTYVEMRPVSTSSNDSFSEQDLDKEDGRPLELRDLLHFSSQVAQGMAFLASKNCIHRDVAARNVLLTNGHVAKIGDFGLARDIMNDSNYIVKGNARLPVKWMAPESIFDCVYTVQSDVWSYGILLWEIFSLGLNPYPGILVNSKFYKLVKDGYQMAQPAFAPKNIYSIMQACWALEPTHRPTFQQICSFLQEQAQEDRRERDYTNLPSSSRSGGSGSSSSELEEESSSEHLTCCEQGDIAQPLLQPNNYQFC
In words: Binding constant (Kd) measurement, phage-displayed kinase competition binding assay, CSF1R. On the procedure: as §1, §2

The next assay deals with T3, KIT (Homo sapiens, UniProt P10721).
T3 construct: made in house
T3 sequence (P10721 26-976): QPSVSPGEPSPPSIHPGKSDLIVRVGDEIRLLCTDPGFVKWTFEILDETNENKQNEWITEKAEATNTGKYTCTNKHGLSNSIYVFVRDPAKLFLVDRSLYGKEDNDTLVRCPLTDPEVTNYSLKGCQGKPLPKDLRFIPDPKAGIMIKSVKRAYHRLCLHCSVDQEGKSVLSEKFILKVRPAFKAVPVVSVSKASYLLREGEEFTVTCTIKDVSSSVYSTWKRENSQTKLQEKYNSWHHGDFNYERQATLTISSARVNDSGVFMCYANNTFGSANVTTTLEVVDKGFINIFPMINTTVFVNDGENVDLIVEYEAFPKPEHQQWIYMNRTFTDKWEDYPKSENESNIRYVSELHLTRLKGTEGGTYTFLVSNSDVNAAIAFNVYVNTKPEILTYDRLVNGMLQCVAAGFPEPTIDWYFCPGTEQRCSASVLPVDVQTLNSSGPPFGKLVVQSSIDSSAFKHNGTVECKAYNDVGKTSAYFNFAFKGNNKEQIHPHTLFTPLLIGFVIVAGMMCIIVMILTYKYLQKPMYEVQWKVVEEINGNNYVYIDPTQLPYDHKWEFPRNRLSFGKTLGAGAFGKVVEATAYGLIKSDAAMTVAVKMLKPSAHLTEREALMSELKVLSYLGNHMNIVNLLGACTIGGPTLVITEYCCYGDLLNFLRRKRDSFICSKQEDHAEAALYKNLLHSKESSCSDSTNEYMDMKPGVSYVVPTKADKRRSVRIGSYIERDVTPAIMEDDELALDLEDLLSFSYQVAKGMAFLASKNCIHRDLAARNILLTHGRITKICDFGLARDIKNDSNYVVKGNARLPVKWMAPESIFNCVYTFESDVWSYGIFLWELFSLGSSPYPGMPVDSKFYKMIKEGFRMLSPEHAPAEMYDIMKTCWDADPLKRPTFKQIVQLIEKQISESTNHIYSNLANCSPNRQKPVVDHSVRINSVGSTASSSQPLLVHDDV
As to the kind of experiment: Binding constant (Kd) measurement, phage-displayed kinase competition binding assay, KIT. The procedure: as §1, §2

Setting [1] is: read-out: Binding Assay FLT3 Kd.

As to `Cc1nc(C(F)(F)F)c(C(=O)Nc2ccc(-c3cn4c(n3)sc3cc(OCCN5CCOCC5)ccc34)cc2)s1` [Compound E3, 2-methyl-4-trifluoromethyl-thiazole-5-carboxylic acid {4-[7-(2-morpholin-4-yl-ethoxy)-benzo[d]imidazo[2,1-b]thiazol-2-yl]-phenyl}-amide], the pKd at FLT3 (setting [1]), at CSF1R and on KIT was under 6.00 throughout. Besides, the pIC50 with MV4-11 cells is under 7.00.
As to `CC(C)(C)c1cc(NC(=O)Nc2ccc(-c3cn4c(n3)sc3cc(CCCN5CCOCC5)ccc34)cc2)no1` [Compound D3, 1-(5-tert-Butyl-isoxazol-3-yl)-3-{4-[7-(3-morpholin-4-yl-propyl)-benzo[d]imidazo[2,1-b]thiazol-2-yl]-phenyl}-urea], the pKd was over 8.00 on FLT3 (setting [1]), 7.00 to 8.00 on CSF1R and over 8.00 at KIT. In addition, in the assay on MV4-11 cells, the pIC50 is over 8.00.
`CC(C)(C)c1cc(NC(=O)Nc2ccc(-c3cn4c(n3)sc3cc(CCC(=O)NCCN5CCOCC5)ccc34)cc2)no1` [Compound C9, 3-(2-{4-[3-(5-tert-butyl-isoxazol-3-yl)-ureido]-phenyl}-benzo[d]imidazo[2,1-b]thiazol-7-yl)-N-(2-morpholin-4-yl-ethyl)-propionamide hydrochloride]: the pKd at FLT3 (setting [1]), on CSF1R and at KIT was over 8.00 in each case. Moreover, the pIC50 in the assay with MV4-11 cells was over 8.00.
As to `CCOC(=O)c1ccc2c(c1)sc1nc(-c3ccc(NC(=O)Nc4cc(C(C)(C)C)on4)cc3)cn12` [Compound C26, 2-{4-[3-(5-tert-Butyl-isoxazol-3-yl)-ureido]-phenyl}-imidazo[2,1-b][1,3]benzothiazole-7-carboxylic acid ethyl ester], the negative-log Kd (pKd) on FLT3 is over 8.00; on CSF1R, 6.00 to 7.00; at KIT it was 7.00 to 8.00. The pIC50 with MV4-11 cells was over 8.00.
Regarding `CC(C)(C)c1ccc(NC(=O)Nc2ccc(-c3cn4c(n3)sc3cc(OCCN5CCOCC5)ccc34)cc2)cc1` [Compound F2, 1-(4-tert-Butyl-phenyl)-3-{4-[7-(2-morpholin-4-yl-ethoxy)-benzo[d]imidazo[2,1-b]thiazol-2-yl]-phenyl}-urea], the pKd on FLT3 (setting [1]) is over 8.00; on CSF1R it was 7.00 to 8.00; at KIT it was over 8.00. For the same compound, the pIC50 with MV4-11 cells is over 8.00.
For the compound `CC(C)(C)c1cc(NC(=O)Nc2ccc(-c3cn4c(n3)sc3cc(OCCCN5CCSCC5)ccc34)cc2)no1` [Compound B8, 1-(5-tert-Butyl-isoxazol-3-yl)-3-{4-[7-(3-thiomorpholin-4-yl-propoxy)-benzo[d]imidazo[2,1-b]thiazol-2-yl]-phenyl}-urea], the pKd on FLT3 was over 8.00; on CSF1R, 7.00 to 8.00; at KIT, 7.00 to 8.00. The pIC50 in the assay with MV4-11 cells was 7.00 to 8.00.
`CC(C)(C)c1cc(NC(=O)Nc2ccc(-c3cn4c(n3)sc3cc(CC(=O)N5CCOCC5)ccc34)cc2)no1` [Compound C18, 1-(5-tert-butyl-isoxazol-3-yl)-3-{4-[7-(2-morpholin-4-yl-2-oxo-ethyl)-imidazo[2,1-b][1,3]benzothiazol-2yl]-phenyl}-urea]: the pKd is over 8.00 at FLT3, 7.00 to 8.00 at CSF1R and over 8.00 on KIT. For the same compound, the pIC50 in the assay with MV4-11 cells is over 8.00.
For `CCN1CCN(C(=O)CCc2ccc3c(c2)sc2nc(-c4ccc(NC(=O)Nc5cc(C(C)(C)C)on5)cc4)cn23)CC1` [Compound C5, N-(5-tert-Butyl-isoxazol-3-yl)-N′-(4-{7-[3-(4-ethyl-piperazin-1-yl)-3-oxo-propyl]imidazo[2,1-b][1,3]benzothiazol-2-yl}phenyl)urea], the pKd is over 8.00 on FLT3 (setting [1]), 7.00 to 8.00 on CSF1R and over 8.00 on KIT. The pIC50 with MV4-11 cells is over 8.00.

As usually defined, the pKd is the negative decadic logarithm of the Kd, by convention in mol/L.
